Reference: patent US20240208972A1, “LRRK2 INHIBITORS AND USES THEREOF” (NEURON23, INC., priority 2022, published 2024)

Assays:
[1] = biological target: T1, wt human LRRK2, catalytic site (Homo sapiens, UniProt Q5S007); experiment: TR-FRET LanthaScreen Tb Kinase Activity Assay, LRRK2 kinase inhibition; type: biochemical; details: 2 nM wt human LRRK2, 400 nM peptide, 38 μM ATP
T1 construct: wt human LRRK2, catalytic site, catalytic site (ThermoFisher/USA); purchased ThermoFisher
Outline: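 TR-FRET LanthaScreen format: 2 nM wt human LRRK2 catalytic domain with 400 nM fluorescein-ERM (LRRKtide) and 38 μM ATP in Kinase Buffer A, after 15 min compound preincubation. Reaction 120 min at RT, then EDTA plus Tb-anti-pLRRKtide antibody for 60 min; emission ratios analysed per kit protocol.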

[2] = Brain penetration (Kp,uu) in CD-1 mice, with plasma and brain tissue binding by equilibrium dialysis; type: in vivo; details: mouse, brain and plasma (unbound), male CD-1 mice, single IV bolus 1 mg/kg
Method: The compounds disclosed herein were tested on CD-1 mice for brain penetration (Kp, uu) according to the following procedures.
Nine male CD-1 mice were administered TEST COMPOUND by single intravenous bolus administration at 1 mg/kg. The vehicle used for IV study was 5% DMSO, 5% solutol, 20% PEG300 and 70% water. The detailed dosing and sampling regimens are described in the following tables.
1.0 mg of test compound was accurately weighed into a glass vial, and slowly added with 104 μL of DMSO and vortexed for 1 min. Then 104 μL of solutol was added and vortexed for 1 min. Then 415 μL of PEG300 was added and vortexed for 1 min. Then 1000 μL of water was added and vortexed for 1 min. Finally, 451 μL of water was added and vortexed for 1 min to get a clear solution.
The body weights were in the range from 28.81 to 31.25 g for males on the first dosing day. All animals received a single intravenous bolus administration of TEST COMPOUND from the tail vein.
Each blood collection (about 0.06 mL per time point) was performed from saphenous vein of each animal into pre-chilled commercial K2-EDTA tubes as anti-coagulant and placed on wet ice until centrifugation.
Plasma samples were then prepared by centrifuging the blood samples at approximately 4° C., 3200×g for 10 minutes. All plasma samples were then quickly frozen over dry ice and kept at −60° C. or lower until LC-MS/MS analysis.
Brain tissue was homogenized using homogenizing buffer (15 mM PBS (pH7.4): MeOH=2:1) at the ratio of 1:9 (1 g tissue with 9 mL buffer, the dilution ratio is 10). The tissue homogenate was kept at −60° C. or lower until LC-MS/MS analysis.
The concentrations of TEST COMPOUND in plasma and brain were determined by using an LC-MS/MS method.
The plasma and brain concentration of TEST COMPOUND in study animals was subjected to a non-compartmental pharmacokinetic analysis by using the Phoenix WinNonlin software program (version 6.3 or above, Pharsight). The linear/log trapezoidal rule was applied in obtaining the PK parameters.
Individual plasma and brain concentration values that were below the lower limit of quantitation (LLOQ) were excluded from the PK parameter calculation. The nominal dose levels and nominal sampling times were used in the calculation of all pharmacokinetic parameters.
Mouse Kp, uu=(% free in mouse brain*concentration in mouse brain)/(% free in mouse plasma*concentration in mouse plasma)
The dialysis apparatus was assembled according to the manufacturer's instruction. Each Cell was filled with 120 μL of spiked plasma sample and dialyzed against equal volume of dialysis buffer (PBS). The assay was performed in duplicate. The dialysis plates were sealed and incubated in an incubator at 37° C. with 5% CO2 and rotated at 100 rpm for 6 hours. At the end of incubation, the seals were removed and 50 μL of samples from both buffer and plasma chambers were transferred to a 96-well plate.
All calculations were carried out using Microsoft Excel. The concentrations of test compound and control compound in the buffer and plasma chambers were determined from peak area ratios (PAR) of analyte to internal standard. Protein binding (% unbound and % bound) and recovery (% recovery) of test and control compounds was calculated as follows:
• 1. Thawing of the frozen brain (stored at −80° C.) • Frozen brain tissue was thawed at room temperature in a bath. Only brain tissue was used that was thawed no more than once. • 2. Preparation of brain tissue homogenate • Brain tissue homogenate was prepared by diluting one quantity (g) of the whole brain tissue with three volumes (mL) of buffer (PBS, pH 7.4) and homogenizing the mixture using a tissue homogenizer. Brain tissue homogenate was frozen at −80° C. for later use/comparison. • 3. Preparation of working solutions • The working solutions of test compound and the control compound propranolol were prepared in dimethyl sulfoxide (DMSO) at the concentration of 200 μM. […]

T1 sequence (Q5S007 1879-2138 limits assumed): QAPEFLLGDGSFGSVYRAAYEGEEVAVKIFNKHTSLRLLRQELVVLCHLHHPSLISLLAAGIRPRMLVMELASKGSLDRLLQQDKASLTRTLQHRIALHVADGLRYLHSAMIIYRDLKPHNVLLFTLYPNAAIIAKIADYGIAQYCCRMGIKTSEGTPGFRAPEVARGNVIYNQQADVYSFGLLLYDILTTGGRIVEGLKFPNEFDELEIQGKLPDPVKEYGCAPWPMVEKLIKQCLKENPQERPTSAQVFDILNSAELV

| Compound | IC50 [1] | Kp uu [2] |
| --- | --- | --- |
| Cc1n[nH]c2c1N=C(c1c(F)cccc1F)Nc1ccc(N3CCO[C@@H](C)C3)cc1-2 [Example 26, (S)-4-(5-(2,6-difluorophenyl)-3-methyl-1,6-dihydrobenzo[d]pyrazolo[3,4-f][1,3]diazepin-9-yl)-2-methylmorpholine] | 2 to 100 nM | 0.2 to 0.4 |
| Cc1n[nH]c2c1N=C(c1c(F)cccc1F)Nc1c-2cc(N2CC3(CCOCC3)C2)nc1C [Example 47, 2-[8-(2,6-difluorophenyl)-5,11-dimethyl-3,4,7,9,12-pentazatricyclo[8.4.0.02,6]tetradeca-1(10),2(6),4,7,11,13-hexaen-13-yl]-7-oxa-2-azaspiro[3.5]nonane] | < 2 nM | 0.2 to 0.4 |
| Cc1n[nH]c2c1N=C(c1c(F)cccc1F)Nc1cc(F)c(N3CCOCC3)cc1-2 [Example 28, 4-[5-(2,6-difluorophenyl)-8-fluoro-3-methyl-1,6-dihydropyrazolo[4,3-d][1,3]benzodiazepine-9-yl]morpholine] | 2 to 100 nM | > 0.4 |
| Cc1n[nH]c2c1N=C(c1c(F)cccc1F)N1CCc3nc(N4CCOCC4)cc-2c31 [Example 42, 4-[8-(2,6-difluorophenyl)-5-methyl-3,4,7,9,13-pentazatetracyclo[7.6.1.02,6.012,16]hexadeca-1(16),2(6),4,7,12,14-hexaen-14-yl]morpholine] | < 2 nM | 0.2 to 0.4 |
| Cc1n[nH]c2c1N=C(c1c(F)cccc1F)Nc1ccc(N3CCO[C@H](C)C3)cc1-2 [Example 7, (R)-4-(5-(2,6-difluorophenyl)-3-methyl-1,6-dihydrobenzo[d]pyrazolo[3,4-f][1,3]diazepin-9-yl)-2-methylmorpholine] | < 2 nM | 0.2 to 0.4 |
| Cc1n[nH]c2c1N=C(c1c(F)cccc1F)Nc1ccc(N3CCN(CCF)CC3)cc1-2 [Example 25, 5-(2,6-difluorophenyl)-9-[4-(2-fluoroethyl)piperazin-1-yl]-3-methyl-1,6-dihydropyrazolo[4,3-d][1,3]benzodiazepine] | < 2 nM | 0.2 to 0.4 |
| Cc1n[nH]c2c1N=C(c1c(F)cccc1F)Nc1ccc(-c3cnn(C(F)F)c3)cc1-2 [Example 13, 9-[1-(difluoromethyl)pyrazol-4-yl]-5-(2,6-difluorophenyl)-3-methyl-1,6-dihydropyrazolo[4,3-d][1,3]benzodiazepine] | < 2 nM | > 0.4 |
| Cn1nccc1-c1cc2c(cn1)NC(c1c(F)cccc1F)=Nc1c(Cl)n[nH]c1-2 [Example 59, 3-chloro-5-(2,6-difluorophenyl)-9-(1-methyl-1H-pyrazol-5-yl)-1,6-dihydropyrazolo[4,3-d]pyrido[4,3-f][1,3]diazepine] | < 2 nM | < 0.2 |
| [2H]C([2H])([2H])c1n[nH]c2c1N=C(c1c(F)cccc1F)Nc1ccc(N3CCOCC3)cc1-2 [Example 33, 4-[5-(2,6-difluorophenyl)-3-(trideuteriomethyl)-1,6-dihydropyrazolo[4,3-d][1,3]benzodiazepin-9-yl]morpholine] | < 2 nM | 0.2 to 0.4 |
| CCc1n[nH]c2c1N=C(c1c(F)cccc1F)Nc1cnc(N3CCOCC3)cc1-2 [Example 31, 4-[8-(2,6-difluorophenyl)-5-ethyl-3,4,7,9,12-pentazatricyclo[8.4.0.02,6]tetradeca-1(10),2(6),4,7,11,13-hexaen-13-yl]morpholine] | 2 to 100 nM | 0.2 to 0.4 |
| Cc1n[nH]c2c1N=C(c1c(F)cccc1F)Nc1cnc(-c3ccn(C(F)F)n3)cc1-2 [Example 12, 13-[1-(difluoromethyl)pyrazol-3-yl]-8-(2,6-difluorophenyl)-5-methyl-3,4,7,9,12-pentazatricyclo[8.4.0.02,6]tetradeca-1(10),2(6),4,7,11,13-hexaene] | < 2 nM | < 0.2 |
| Cc1n[nH]c2c1N=C(c1c(F)cccc1F)Nc1c-2cc(N2CCN(CC(C)(C)F)CC2)nc1C [Example 5, 5-(2,6-difluorophenyl)-9-(4-(2-fluoro-2-methylpropyl)piperazin-1-yl)-3,7-dimethyl-1,6-dihydropyrazolo[4,3-d]pyrido[4,3-f][1,3]diazepine] | < 2 nM | > 0.4 |
| Cc1n[nH]c2c1N=C(c1c(F)cccc1F)Nc1c-2cc(N2CCN(CC(F)F)CC2)nc1C [Example 19, 13-[4-(2,2-difluoroethyl)piperazin-1-yl]-8-(2,6-difluorophenyl)-5,11-dimethyl-3,4,7,9,12-pentazatricyclo[8.4.0.02,6]tetradeca-1(10),2(6),4,7,11,13-hexaene] | < 2 nM | > 0.4 |

Second part, the compound after the results:

| IC50 [1] | Kp uu [2] | Compound |
| --- | --- | --- |
| < 2 nM | 0.2 to 0.4 | [2H]C([2H])([2H])c1n[nH]c2c1N=C(c1c(F)cccc1F)Nc1ccc(N3CCO[C@@H](C)C3)cc1-2 [Example 34, (2S)-4-[5-(2,6-difluorophenyl)-3-(trideuteriomethyl)-1,6-dihydropyrazolo[4,3-d][1,3]benzodiazepin-9-yl]-2-methyl-morpholine] |
| < 2 nM | > 0.4 | Cc1n[nH]c2c1N=C(c1c(F)cccc1F)Nc1c-2cc(N2CCN(CC(F)(F)F)CC2)nc1C [Example 23, 5-(2,6-difluorophenyl)-3,7-dimethyl-9-(4-(2,2,2-trifluoroethyl)piperazin-1-yl)-1,6-dihydropyrazolo[4,3-d]pyrido[4,3-f][1,3]diazepine] |
| < 2 nM | < 0.2 | [2H]C1([2H])OC([2H])([2H])C([2H])([2H])N(c2ccc3c(c2)-c2[nH]nc(C)c2N=C(c2c(F)cccc2F)N3)C1([2H])[2H] [Example 22, 2,2,3,3,5,5,6,6-octadeuterio-4-[5-(2,6-difluorophenyl)-3-methyl-1,6-dihydropyrazolo[4,3-d][1,3]benzodiazepin-9-yl]morpholine] |
| < 2 nM | 0.2 to 0.4 | [2H]C([2H])([2H])c1n[nH]c2c1N=C(c1c(F)cccc1F)Nc1cnc(N3CCOCC3)cc1-2 [Example 32, 4-[8-(2,6-difluorophenyl)-5-(trideuteriomethyl)-3,4,7,9,12-pentazatricyclo[8.4.0.02,6]tetradeca-1(10),2(6),4,7,11,13-hexaen-13-yl]morpholine] |
| < 2 nM | > 0.4 | Cc1n[nH]c2c1N=C(c1c(F)cccc1F)Nc1c-2cc(N2CCN(CCF)C[C@H]2C)nc1C (single isomer, unassigned) [Example 18] |
| < 2 nM | > 0.4 | Cc1n[nH]c2c1N=C(c1c(F)cccc1F)Nc1c-2cc(N2CCN(CCF)CC2)nc1C [Example 9, 8-(2,6-difluorophenyl)-13-[4-(2-fluoroethyl)piperazin-1-yl]-5,11-dimethyl-3,4,7,9,12-pentazatricyclo[8.4.0.02,6]tetradeca-1(10),2(6),4,7,11,13-hexaene] |
| < 2 nM | 0.2 to 0.4 | Cc1n[nH]c2c1N=C(c1c(F)cccc1F)Nc1cnc(C#CC3(C)CCOCC3)cc1-2 [Example 17, 8-(2,6-difluorophenyl)-5-methyl-13-[2-(4-methyltetrahydropyran-4-yl)ethynyl]-3,4,7,9,12-pentazatricyclo[8.4.0.02,6]tetradeca-1(10),2(6),4,7,11,13-hexaene] |
| < 2 nM | > 0.4 | Cc1n[nH]c2c1N=C(c1c(F)cccc1F)Nc1ccc(N3CCOCC3)cc1-2 [Example 29, 4-(5-(2,6-difluorophenyl)-3-methyl-1,6-dihydrobenzo[d]pyrazolo[3,4-f][1,3]diazepin-9-yl)morpholine] |
